In US9873693B2 (Sunesis Pharmaceuticals, Inc., priority 2006, dated 2018):

How the values were obtained:
phosphorylated PDK1 = phosphorylated PDK1 (Homo sapiens (Human), UniProt O15530); experiment: PDK1 kinase assay (coupled PDK1/AKT/FAM-crosstide, IMAP); format: biochemical; details: 0.5 nM phosphorylated PDK1, 24 μM ATP; read-out: Inhibition of phospo-PDK1 in vitro IC50
Phospho-T308 Akt = Phospho-T308 Akt detection using immunoblot (western blot) in PC-3 cells; format: cell-based; details: 2 μM or 5 μM, concentration not given
In short: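 PC-3 prostate cells, cultured overnight in F12K plus 10% FBS, were treated for 2 h at 37 °C in serum-free medium with compound A (1000× DMSO dilutions). Lysate protein was immunoblotted with anti-phospho-Akt Thr308. Bands were quantified by background-subtracted densitometry, giving EC50 by non-linear regression and percent decrease at 2 μM and 5 μM.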

full-length PDK1 = full-length PDK1 (Homo sapiens (Human), UniProt O15530); experiment: PDK phosphorylation of AKT and PKC-PIFtide in presence of PIP3 vesicles; format: biochemical; details: substrates PKC-PIFtide vs AKT2
Method: PDK phosphorylation of two different substrates, AKT and PKC-PIFtide, was measured in presence of pre-formed phophoinositol lipid PIP3 vesicles. 5 nM full-length PDK1 and was incubated with 100 nM substrate (unphosphorylated, full-length AKT2 or PKC-PIFtide, Invitrogen cat#P2925) in presence of test compound or DMSO at room temperature for 3 hours. Final buffer conditions were 10 mM Tris pH 7.5 buffer containing 10 mM MgCl2, 0.002% Triton X-100, 1 mM DTT, 0.2 mg/ml BSA, 10 uM PtdIns(3,4,5)P3 (Matreya, Inc), 100 uM DOPC:DOPS (Avanti Polar Lipids), and 0.5 uCi γ^33P-ATP (3000 Ci/mmol, Perkin-Elmer.)
Kinase reactions were stopped with addition of 50 uM non-labelled ATP and 5 mM EDTA, then acidified with 0.5% final concentration phosphoric acid. Labeled proteins were collected in Whatman P81 filter plates and washed with three 150 ul volumes of 0.5% phosphoric acid.
Lipid vesicles were pre-formed as follows. 15 mg (3 ampules) DOPC:DOPS was resuspended in 898 ul 10 mM HEPES pH 7.4. 1 mg PIP3 was resuspended in 1000 ul 10 mM HEPES pH 7.4. 964 ul of PIP3 was mixed with 800 ul DOPC:DOPS and diluted with 18.2 ml 10 mM HEPES pH 7.4 and mixed by vortexing. The lipid mixture was subjected to 5 cycles of freeze/thaw using liquid nitrogen and a 50° C. water bath. Aliquot of lipids were flash frozen and stored at −20° C.

Chain of full-length PDK1 (O15530 whole entry): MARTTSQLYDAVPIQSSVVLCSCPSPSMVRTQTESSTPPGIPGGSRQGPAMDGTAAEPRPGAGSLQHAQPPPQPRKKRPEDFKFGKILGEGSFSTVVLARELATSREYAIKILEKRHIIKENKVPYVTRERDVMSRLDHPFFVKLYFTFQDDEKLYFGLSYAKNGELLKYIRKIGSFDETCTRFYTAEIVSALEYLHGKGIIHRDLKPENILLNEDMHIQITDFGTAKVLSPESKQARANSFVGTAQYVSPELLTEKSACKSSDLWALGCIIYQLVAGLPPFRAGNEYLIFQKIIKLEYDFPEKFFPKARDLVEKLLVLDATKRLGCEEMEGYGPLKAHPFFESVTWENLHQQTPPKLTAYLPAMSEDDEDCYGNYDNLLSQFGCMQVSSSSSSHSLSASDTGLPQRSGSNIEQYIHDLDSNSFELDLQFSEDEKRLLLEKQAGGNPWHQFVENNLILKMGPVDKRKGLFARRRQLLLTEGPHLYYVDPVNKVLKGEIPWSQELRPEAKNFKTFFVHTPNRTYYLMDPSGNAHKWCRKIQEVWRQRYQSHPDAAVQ
Chain of phosphorylated PDK1 (O15530 51-360): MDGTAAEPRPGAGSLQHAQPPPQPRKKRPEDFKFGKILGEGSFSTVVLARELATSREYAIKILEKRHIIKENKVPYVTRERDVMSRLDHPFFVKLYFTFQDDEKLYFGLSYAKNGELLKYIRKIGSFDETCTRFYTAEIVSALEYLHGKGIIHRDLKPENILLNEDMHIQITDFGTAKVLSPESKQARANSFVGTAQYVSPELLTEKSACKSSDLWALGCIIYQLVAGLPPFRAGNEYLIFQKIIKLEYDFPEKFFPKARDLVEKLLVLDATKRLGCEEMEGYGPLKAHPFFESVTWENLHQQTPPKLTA

SMILES: O=C(NCc1nc(-c2c[nH]c3ncccc23)cs1)c1cccn(Cc2ccc(F)c(F)c2)c1=O [Cpd 112]
- IC50 (phosphorylated PDK1): < 500 nM
- Percent Inhibition of phospho-Akt (308) By Western (Phospho-T308 Akt): d (inhibition of less than 25%)
- Ratio of PIP3 IC50 with PKCtide to PIP3 IC50 with AKT (full-length PDK1): 71.9
